From US10550109B2, “Crystal form of brexpiprazole and preparation method therefor” (Zhejiang Huahai Pharmaceutical Co., Ltd, priority 2016, dated 2020)

Experiment: Comparison of stability (water content over time) of brexpiprazole solid forms at 25° C. and 60% ambient humidity
Type: physicochemical
Description: The comparation of the stability of brexpiprazole in the crystal form I, the dihydrated crystal form, the anhydrous crystal form and the amorphous form is shown in Table 1. The test in Table 1 was carried out at 25° C. and 60% ambient humidity.

Row | Structure (SMILES) | Water Content (after 1 month) | Water Content (after 2 months) | Water Content (after 3 months) | Water Content (initial) | Water Content (after 1 month) (dihydrate) | Water Content (after 2 months) (dihydrate) | Water Content (after 3 months) (dihydrate) | Water Content (initial) (dihydrate)
1 | O=c1ccc2ccc(OCCCCN3CCN(c4cccc5sccc45)CC3)cc2[nH]1 [Amorphous form, 7-{4-[4-(1-benzothiophen-4-yl)piperazin-1-yl]butoxy}-1H-quinolin-2-one] | 0.13 wt. % | 0.22 wt. % | 0.40 wt. % | 0.02 wt. % |  |  |  | 
2 | O=c1ccc2ccc(OCCCCN3CCN(c4cccc5sccc45)CC3)cc2[nH]1 [Anhydrous crystal form, 7-[4-(4-benzo[b]thiophen-4-yl-piperazin-1-yl)butoxy]-1H-quinolin-2-one] | 0.09 wt. % | 0.21 wt. % | 0.30 wt. % | 0.02 wt. % |  |  |  | 
3 | O=c1ccc2ccc(OCCCCN3CCN(c4cccc5sccc45)CC3)cc2[nH]1 [Dihydrated crystal form, 7-[4-(4-benzo[b]thiophen-4-yl-piperazin-1-yl)butoxy]-1H-quinolin-2-one dihydrate] |  |  |  |  | 6.90 wt. % | 7.10 wt. % | 7.50 wt. % | 6.74 wt. %
4 | O=c1ccc2ccc(OCCCCN3CCN(c4cccc5sccc45)CC3)cc2[nH]1 [Crystal form I, 7-{4-[4-(1-benzothiophen-4-yl)piperazin-1-yl]butoxy}-1H-quinolin-2-one] | 1.27 wt. % | 1.26 wt. % | 1.27 wt. % | 1.24 wt. % |  |  |  | 
